{
  "source": "patent US12552744B2",
  "about": "“Method for producing monosulfoxide derivative” (KUMIAI CHEMICAL INDUSTRY CO., LTD., priority 2020, dated 2026)",
  "experiment": "Solubility of the compound in solvents",
  "type": "physicochemical",
  "settings": "at 5° C.",
  "data": [
    {"smiles": "[O-][S+](CC(F)(F)F)c1cc(OCCCCCSC(F)(F)F)c(F)cc1Cl", "note": "(stereo not shown) [B-a, 5-trifluoromethylthiopentyl-[4-chloro-2-fluoro-5-(2,2,2-trifluoroethylsulfinyl)phenyl]ether]", "values": [
      {"measurement": "solubility in a mixed solution of 70 wt. % t-butanol/water", "value": "about 2 wt. %"}
    ]}
  ]
}
